Reference: article PMC4122979, “The N-terminal portion of autoinhibitory element modulates human endothelial nitric-oxide synthase activity through coordinated controls of phosphorylation at Thr^495 and Ser^1177” (Bioscience Reports, 2014)

Key:
human CaM = assay: CaM mobility shift gel (CBD peptide binding to CaM); conditions: 200 pmol CaM; for order of binding affinity for CBD variants to CaM: densitometric analysis of attenuation of free CaM bands (I/I0 versus peptide:CaM ratio), 100 μM CaCl2, pH 7.5, triplicate gels (n=4 in Figure 5 legend); for CaM-peptide complex formation: non-denaturing, non-reducing PAGE (18% gel), peptide 0–2000 pmol, 1 h, 20 mM Tris, pH 7.5, 100 μM CaCl2, Coomassie staining
Method: Human CaM was purified essentially as described previously. CaM (200 pmol) was incubated with each peptide at several molar ratios for 1 h in 10 μl of buffer containing 20 mM Tris, pH 7.5 with 100 μM CaCl2. The sample was subjected to non-denaturing, non-reducing PAGE (18% gel) at 30 mA under high Ca^2+ conditions (100 μM free Ca^2+ in all gel buffers). Binding of peptides to CaM was visualized by Coomassie Brilliant Blue R-250 staining. The relative amount of CaM on the gel at each peptide concentration (I) was determined by densitometry and normalized to CaM in the absence of peptide (I0). The data are plotted as the mean I/I0±S.D. (n=4) versus peptide:CaM ratio.
What needs to be explained is why a similar activation of eNOS is observed with little effect on phosphorylation of Thr^495 in mutant Δ605. Thus, it is difficult at this stage to conclude the precise roles of Thr^495 dephosphorylation in the activation of eNOS. Conflicting conclusions have also been drawn from earlier observations in the role of Thr^495 phosphorylation with eNOS activation. It has been reported that eNOS activity is increased by phosphorylation of Ser^1177 despite enhanced Thr^495 phosphorylation. […] To resolve this discrepancy, we synthesized peptides representing heNOS CBD (residues 491–510) with point mutations at Thr^495 site (Figure 5A) and determined the apparent affinity of the CBD variants to CaM. Each peptide with increasing concentrations (0–2000 pmol) was incubated with purified CaM at a fixed concentration (200 pmol) in the presence of 100 μM CaCl2. The mixtures were electrophoresed on non-reducing, non-denaturing gels. […] Peptide–CaM complexes migrate as higher molecular weight bands than free CaM in the presence of calcium. […] The extent of CaM-peptide interaction was assessed by densitometric analysis of attenuation of free CaM bands in the presence of increasing concentrations of each peptide.
Figure 5 Interaction of synthetic CBD peptides with calcium/CaM (A) Peptide CBD sequences (residues 491–510, based on heNOS) with unmodified T495 (T495), phosphonull A substitution (A495, red colour), phosphomimetic substitution (D495, blue colour) and phosphorylated T495 (pT495, brown colour) are indicated. (B) The synthetic CBD variants were incubated with CaM (200 pmol) by increasing peptide:CaM molar ratios in the presence of 100 μM CaCl2 before electrophoresis. The samples were analysed on 18% non-denaturing gels and visualized with Coomassie Brilliant Blue R-250. Representative Coomassie Brilliant Blue-stained gels of samples containing CaM and increasing molar ratios of T495, A495, D495 and pT495 are shown. The first lane in each gel contains CaM only, i.e., CBD/CaM ratio is 0. The rest CBD/CaM ratios were 0.1:1 (2nd lane), 0.2:1 (3rd lane), 0.4:1 (4th lane), 0.8:1 (5th lane), 1.6:1 (6th lane), 3.2:1 (7th lane), 6.4:1 (8th lane) and 12.8:1 (9th lane). CBD–CaM complexes and free CaM are denoted. (C) The relative amount of CaM on the gel at each peptide concentration (I) was determined by densitometry and normalized to CaM in the absence of peptide (I0). The data are plotted as the mean I/I0±S.D. (n=4) versus peptide:CaM ratio.

eNOS [1] = assay: Inhibition of eNOS reductase activity (cytochrome c reduction) by CBD peptides; format: biochemical, human; conditions: 10 μM peptide; for effect on cytochrome c reduction (electron transfer within reductase domain), in words / inhibition of cytochrome c reductase activity: 50 nM eNOS, 0.5 μM CaM, 100 μM CaCl2, 50 μM cytochrome c, 100 μM β-NADPH, pH 7.5, 25°C, 550 nm; for order of inhibitory potency to eNOS activity: intra-domain electron transfer (cytochrome c reduction): same order stated for CaM binding affinity; for inhibition of cytochrome c reductase activity: relative to rate without peptide, mean of triplicate experiments
Method: (§1) The expression and purification of eNOS from Sf21 cells was carried out essentially same as previously reported. The inhibition of eNOS oxygenase activity by unmodified or modified CBDs was tested at 37°C for 4 min by measuring L-[^3H]citrulline formation in a mixture containing 25 mM Tris, pH 7.5, 100 mM NaCl, 0.5 μM CaM, 0.2 mM EDTA, 0.3 mM CaCl2, 100 μM β-NADPH, 10 μM H4B, 20 μM L-arginine, 1 μCi of L-[^3H]arginine, 100 nM eNOS, and in the presence or absence of 10 μM of each peptide. Cytochrome c reduction was determined at room temperature (25°C) in a reaction mixture containing 25 mM Tris–HCl, pH 7.5, 100 mM NaCl, 10% glycerol, 50 μM cytochrome c, 0.5 μM CaM, 100 μM CaCl2 and 100 μM β-NADPH in the presence or absence of 10 μM of each peptide. The reaction was initiated by addition of 50 nM eNOS and monitored at 550 nm in a GE geneQuant100 spectrophotometer. Activity was determined using a ΔE550=21 mM^−1cm^−1. An assay in the absence of CaM was carried out to serve as baseline reference.
(§2) Figure 6 Evaluation of inhibitory potency of CBD variants on eNOS activity Modified or unmodified CBD peptides were assessed for their ability to inhibit (A) citrulline formation activity and (B) Cytochrome c reduction. CR denotes a complete reaction mixture; CR-CaM denotes omission of CaM from the complete reaction mixture; CR+T495 indicates the addition of 10 μM of unmodified CBD (T495) to the complete reaction mixture; CR+A495 denotes the addition of 10 μM of phosphonull CBD (A495) to the complete reaction mixture; CR+D495 indicates the addition of 10 μM of phosphomimetic CBD (D495) to the complete reaction mixture; CR+pT495 denotes the addition of 10 μM of phosphorylated CBD (pT495) to the complete reaction mixture. The complete reaction mixture for L-[^3H]citrulline formation contains 25 mM Tris, pH 7.5, 100 mM NaCl, 0.5 μM CaM, 0.2 mM EDTA, 0.3 mM CaCl2, 100 μM β-NADPH, 10 μM H4B, 20 μM L-arginine, 1 μCi of L-[^3H]arginine, 100 nM eNOS. The complete reaction mixture for cytochrome c reduction contains 25 mM Tris–HCl, pH 7.5, 100 mM NaCl, 10% glycerol, 50 μM cytochrome c, 0.5 μM CaM, 100 μM CaCl2 and 100 μM β-NADPH. The catalytic activity was normalized to give percentages relative to the reaction rate in the absence of each peptide. Each bar represents mean±S.D. of triplicate experiments. Under these conditions, the activities for eNOS bound to CaM were 12±2/min for citrulline formation, and 295±15/min for cytochrome c reduction. Data are presented as means±S.D.*denotes P<0.05, ** P<0.01, NS, not significant difference as compared with that in the absence of synthetic CBD peptides. Each experiment was performed in triplicate and repeated three times.

eNOS [2] = assay: Inhibition of eNOS oxygenase activity (L-[^3H]citrulline formation) by CBD peptides; format: biochemical, human; conditions: 10 μM peptide; for inhibition of L-citrulline formation: relative to rate without peptide, mean of triplicate experiments; for order of inhibitory potency to eNOS activity: inter-domain electron transfer (citrulline formation): same order stated for CaM binding affinity
Method: as §1, §2

[3] = 100 nM eNOS, 0.5 μM CaM, 0.3 mM CaCl2, 20 μM L-arginine, pH 7.5, 37°C, 4 min

Row | Substance | order of binding affinity for CBD variants to CaM (human CaM) | CaM-peptide complex formation (human CaM) | effect on cytochrome c reduction (electron transfer within reductase domain), in words (eNOS [1]) | order of inhibitory potency to eNOS activity: intra-domain electron transfer (cytochrome c reduction) (eNOS [1]) | inhibition of L-citrulline formation (eNOS [2]; [3]) | order of inhibitory potency to eNOS activity: inter-domain electron transfer (citrulline formation) (eNOS [2]) | inhibition of cytochrome c reductase activity (eNOS [1]) | effect on eNOS oxygenase activity (citrulline formation), in words (eNOS [2]; [3])
1 | TRKKT^495FKEVANAVKISASLM [T495, Unmodified CBD peptide, heNOS residues 491–510] | T495>A495>D495>pT495 | exhibited increases in CaM–peptide complex bands and reciprocal attenuation of free CaM bands | inhibits the activity completely | T495>A495>D495>pT495 | 87% | T495>A495>D495>pT495 | – | –
2 | TRKKA^495FKEVANAVKISASLM [A495, phospho-null CBD peptide, heNOS residues 491–510] | T495>A495>D495>pT495 | also showed CaM-peptide binding | – | T495>A495>D495>pT495 | 70% | T495>A495>D495>pT495 | 90% | –
3 | TRKKD^495FKEVANAVKISASLM [D495, phosphomimetic CBD peptide, heNOS residues 491–510] | T495>A495>D495>pT495 | also showed CaM-peptide binding | – | T495>A495>D495>pT495 | 20% | T495>A495>D495>pT495 | 75% | –
4 | TRKKpT^495FKEVANAVKISASLM [pT495, phosphorylated CBD peptide, heNOS residues 491–510] | T495>A495>D495>pT495 | nearly no detectable peptide-CaM complex | virtually no inhibition on electron transfer within reductase domain | T495>A495>D495>pT495 | – | T495>A495>D495>pT495 | – | did not interfere with eNOS oxygenase activity
